This is an account of results in ChEMBL document CHEMBL1126817, “Synthesis, Biological Properties, and Structure-Activity Relationships of Quinoxaline Angiotensin II Receptor Antagonists” (Bioorg Med Chem Lett, 1993).

For assay [1], the target named is T1, Angiotensin II receptor (Rattus norvegicus, UniProt P29089+P25095+P35351).
T1 sequence (P29089 whole entry): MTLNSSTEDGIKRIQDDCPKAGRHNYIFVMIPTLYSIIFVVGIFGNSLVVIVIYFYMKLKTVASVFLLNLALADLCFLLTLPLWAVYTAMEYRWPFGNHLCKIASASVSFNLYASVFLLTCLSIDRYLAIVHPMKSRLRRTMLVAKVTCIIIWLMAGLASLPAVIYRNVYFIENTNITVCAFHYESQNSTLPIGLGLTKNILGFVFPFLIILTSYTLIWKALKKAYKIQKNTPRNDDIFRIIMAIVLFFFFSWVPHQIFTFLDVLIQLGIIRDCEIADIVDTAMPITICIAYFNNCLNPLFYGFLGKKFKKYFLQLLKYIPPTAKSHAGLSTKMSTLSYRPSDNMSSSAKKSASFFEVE
T1 sequence (P25095 whole entry): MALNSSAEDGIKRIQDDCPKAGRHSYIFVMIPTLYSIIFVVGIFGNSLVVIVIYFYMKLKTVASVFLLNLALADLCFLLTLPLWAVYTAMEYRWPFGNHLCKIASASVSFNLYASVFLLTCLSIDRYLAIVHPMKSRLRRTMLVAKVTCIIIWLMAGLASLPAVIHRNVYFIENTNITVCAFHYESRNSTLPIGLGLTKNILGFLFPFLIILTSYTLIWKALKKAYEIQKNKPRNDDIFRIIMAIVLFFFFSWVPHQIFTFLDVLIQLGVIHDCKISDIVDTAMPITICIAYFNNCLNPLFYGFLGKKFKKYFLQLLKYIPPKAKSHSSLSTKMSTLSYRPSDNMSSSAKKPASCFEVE
T1 sequence (P35351 whole entry): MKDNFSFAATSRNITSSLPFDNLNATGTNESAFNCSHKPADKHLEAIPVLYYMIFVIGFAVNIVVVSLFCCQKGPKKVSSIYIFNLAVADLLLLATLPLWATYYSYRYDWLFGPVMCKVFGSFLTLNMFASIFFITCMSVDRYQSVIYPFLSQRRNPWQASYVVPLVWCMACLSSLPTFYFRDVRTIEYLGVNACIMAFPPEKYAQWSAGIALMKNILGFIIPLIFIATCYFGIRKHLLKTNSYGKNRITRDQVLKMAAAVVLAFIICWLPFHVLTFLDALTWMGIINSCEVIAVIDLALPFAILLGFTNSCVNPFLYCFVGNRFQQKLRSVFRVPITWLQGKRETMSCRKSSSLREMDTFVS
The assay is described as follows: Tested for binding affinity by measuring displacement of [125I]-Sar1 Ile8 angiotensin II from rat adrenal cortical membranes. In kind it is cell membranes, Membrane. For orientation: Displacement assays read how much labelled ligand stays bound in the presence of the test substance.

Assay [2] deals with Rattus norvegicus. In words: Compound was tested for inhibition of angiotensin II induced pressor response after intravenous administration in rats. The format is functional.
In assay [3] the test system is Rattus norvegicus. The assay is described as follows: Tested for percent inhibition of compound against angiotensin II induced pressor response after 3 umol/kg intravenous administration at 70 min in rats. The format is functional.
The species entered for assay [4] is Rattus norvegicus. The assay is described as follows: Tested for depression of contractions elicited by angiotensin II receptor in isolated rat aorta. In kind it is functional.
The subject of assay [5] is Rattus norvegicus. The assay is described as follows: Tested for percent inhibition of compound against angiotensin II induced pressor response after 1 umol/kg intravenous administration in rats; inactive. In kind it is functional.

Molecules are shown by their SMILES.

As a reminder, the Ki is the dissociation constant of the complex between target and ligand, obtained from inhibition or displacement. Broadly, the ED50 is the midpoint of the dose-response relation. A lower ED50 goes with greater potency. As usually defined, the inhibition in vivo is how much of the control response was suppressed. A lower inhibition in vivo goes with a response near the control. `CCCCc1c(Cc2ccc(-c3ccccc3-c3nn[nH]n3)cc2)[n+]([O-])c2ccccc2[n+]1[O-]` had a Ki in assay [1] of 2.6 nM. The 50% effect level in assay [2] (ED50) was put at a dose of 1.8 µmol/kg. The inhibition in vivo at 3 µmol/kg in assay [3] turned out to be 0%. Also, the Kb in assay [4] is 2.1 nM.
In turn, `CCCCc1nc2ccccc2[n+]([O-])c1Cc1ccc(-c2ccccc2-c2nn[nH]n2)cc1` returned a Ki in assay [1] of 2.1 nM. This molecule also came in with a Kb in assay [4] of 5.3 nM.
For the molecule `CCCCc1nc2cccc(C(=O)O)c2nc1Cc1ccc(-c2ccccc2-c2nn[nH]n2)cc1`, the Ki in assay [1] is listed as 6.9 nM. For the same molecule, the inhibition in vivo at 1 µmol/kg in assay [5] is 7%. The same molecule gave a Kb in assay [4] of 0.49 nM.
In the case of `CCCCc1nc2ccccc2nc1Cc1ccc(-c2ccccc2-c2nn[nH]n2)cc1`, the Ki in assay [1] turned out to be 7 nM. In assay [4], this molecule had a Kb of 32 nM.
In assay [1], `CCCCc1c(Cc2ccc(-c3ccccc3-c3nn[nH]n3)cc2)nc2ccccc2[n+]1[O-]` came in with a Ki of 29 nM. The same molecule had a Kb in assay [4] of 52 nM.
